In patent US20250326790A1, “PEPTIDES BINDING TO HYPOXIA INDUCIBLE FACTORS AND THEIR USE” (UNIVERSITY OF SOUTHAMPTON, priority 2021, published 2025) one finds Kd data, which are given here for nine molecules.

This assay deals with recombinantly expressed PAS-B domain of HIF-1α (Homo sapiens (Human), UniProt Q16665). The assay can be described thus: MST binding affinity to PAS-B domain of HIF-1α. The following applies: microscale thermophoresis, 50 nM labelled protein, 10% DMSO. How it is done: MST experiments were performed on a Monolith NT.115 system (Nanotemper Technologies GmbH), in assay buffer containing 50 nM labelled protein, 10% DMSO and 0.05% TWEEN-20. MST measurements were performed using 50% LED and 50% MST power.
Sequence of recombinantly expressed PAS-B domain of HIF-1α (Q16665 228-298): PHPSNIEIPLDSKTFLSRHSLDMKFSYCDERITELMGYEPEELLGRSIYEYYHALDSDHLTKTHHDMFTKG

*1 amine or outer side, *2 acyl side, *3 side chain or, on linkers, in order; H or OH if unused. Where a SMILES comes first, the peptide text is derived from it. [ ]: non-standard residue; d: D form. Phe(4-I) = N[C@@H](Cc1ccc(I)cc1)C(=O)O; hLeu = CC(C)CC[C@H](N)C(=O)O; CO = O=C([*:1])[*:2] A value given as a limit tells only on which side of the number the result lay.

For orientation: Kd means the constant that tells how readily two partners part at equilibrium. For the molecule `CNC(=O)N[C@@H](CCC(C)C)C(=O)N[C@@H](Cc1ccc(I)cc1)C(=O)N[C@@H](CS)C(N)=O` [Example 5] ({NHMe-CO}-[hLeu]-[Phe(4-I)]-Cys-NH2), the Kd is greater than 50 µM.

Consider `Cc1c(S(=O)(=O)N[C@@H](CCC(C)C)C(=O)N[C@@H](Cc2ccc(I)cc2)C(=O)N[C@@H](CS)C(N)=O)sc2ccc(Cl)cc12` [Example 28], for which the Kd worked out at 8 µM.

Consider `CC(C)CC[C@H](NS(=O)(=O)c1ccc(Cl)s1)C(=O)N[C@@H](Cc1ccc(I)cc1)C(=O)N[C@@H](CS)C(=O)NCCCCCN` [Example 40], for which the Kd stood at 100 µM.

With `CC(C)CC[C@H](NS(=O)(=O)c1cc(Cl)c(Cl)s1)C(=O)N[C@@H](Cc1ccc(I)cc1)C(=O)N[C@@H](CC(N)=O)C(=O)NCCCCl` [Example 58], the Kd was greater than 500 µM.

`CC(C)CC[C@H](NS(=O)(=O)c1cc(Cl)c(Cl)s1)C(=O)N(C)[C@@H](Cc1ccc(I)cc1)C(=O)N[C@@H](CN)C(=O)NCCCCl` [Example 59]: the Kd is greater than 500 µM.

On to `CC(C)CC[C@H](NS(=O)(=O)c1cc(Cl)c(Cl)s1)C(=O)N[C@@H](Cc1ccc(I)cc1)C(=O)N[C@@H](CC(F)(F)F)C(=O)NCCCCl` [Example 66], for which the dissociation constant Kd is greater than 125 µM.

For `CC(C)CC[C@H](NS(=O)(=O)c1cc(Cl)c(Cl)s1)C(=O)N(C)[C@@H](Cc1ccc(I)cc1)C(=O)N[C@@H](CN1CCOCC1)C(=O)NCCCCl` [Example 67], the Kd is greater than 500 µM.

`CC(C)CC[C@H](NS(=O)(=O)c1cc(Cl)c(Cl)s1)C(=O)N[C@@H](Cc1ccc(I)cc1)C(=O)N[C@@H](CS(N)(=O)=O)C(=O)NCCCCl` [Example 68]: the equilibrium dissociation constant (Kd) was greater than 500 µM.

Take `CNC[C@H](NC(=O)[C@H](Cc1ccc(I)cc1)NC(=O)[C@H](CCC(C)C)NS(=O)(=O)c1cc(Cl)c(Cl)s1)C(=O)NCCCCl` [Example 72]: the Kd was greater than 500 µM.
